The source made the active and inactive calls. The calls are words filed in the database; no cut-off is given here.
Molecular target: Concanavalin-A (Canavalia ensiformis) (UniProt P02866)
Assay: Binding affinity to jack bean concanavalin A by enzyme-linked lectin assay

Chain of Concanavalin-A (Canavalia ensiformis) (P02866 whole entry): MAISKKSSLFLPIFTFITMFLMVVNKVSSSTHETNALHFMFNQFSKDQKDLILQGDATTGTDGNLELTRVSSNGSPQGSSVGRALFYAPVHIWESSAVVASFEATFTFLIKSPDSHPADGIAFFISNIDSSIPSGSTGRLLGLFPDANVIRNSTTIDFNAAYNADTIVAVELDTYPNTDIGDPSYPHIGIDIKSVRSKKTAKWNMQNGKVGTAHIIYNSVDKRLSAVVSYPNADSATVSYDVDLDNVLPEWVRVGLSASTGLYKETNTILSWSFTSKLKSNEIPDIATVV

Row | Compound | Activity
1 | NC(=O)CCN(CCO[C@H]1O[C@H](CO)[C@@H](O)[C@H](O)[C@@H]1O)C(=O)CN(CCO[C@H]1O[C@H](CO)[C@@H](O)[C@H](O)[C@@H]1O)C(=O)CN(CCO[C@H]1O[C@H](CO)[C@@H](O)[C@H](O)[C@@H]1O)C(=O)CN(CCO[C@H]1O[C@H](CO)[C@@H](O)[C@H](O)[C@@H]1O)C(=O)CN(CCO[C@H]1O[C@H](CO)[C@@H](O)[C@H](O)[C@@H]1O)C(=O)CN(CCO[C@H]1O[C@H](CO)[C@@H](O)[C@H](O)[C@@H]1O)C(=O)CNC(=O)CCCCCNC(=O)CCCCC1SC[C@@H]2NC(=O)N[C@H]12 (stereo not given in full) | Active
2 | NC(=O)CN(CCO[C@H]1O[C@H](CO)[C@@H](O)[C@H](O)[C@@H]1O)C(=O)CN(CCO[C@H]1O[C@H](CO)[C@@H](O)[C@H](O)[C@@H]1O)C(=O)CN(CCO[C@H]1O[C@H](CO)[C@@H](O)[C@H](O)[C@@H]1O)C(=O)CN(CCO[C@H]1O[C@H](CO)[C@@H](O)[C@H](O)[C@@H]1O)C(=O)CN(CCO[C@H]1O[C@H](CO)[C@@H](O)[C@H](O)[C@@H]1O)C(=O)CNC(=O)CCCCCNC(=O)CCCCC1SC[C@@H]2NC(=O)N[C@H]12 (stereo not given in full) | Active
3 | NC(=O)CCN(CCO[C@H]1O[C@H](CO)[C@@H](O)[C@H](O)[C@@H]1O)C(=O)CN(CCO[C@H]1O[C@H](CO)[C@@H](O)[C@H](O)[C@@H]1O)C(=O)CN(CCO[C@H]1O[C@H](CO)[C@@H](O)[C@H](O)[C@@H]1O)C(=O)CN(CCO[C@H]1O[C@H](CO)[C@@H](O)[C@H](O)[C@@H]1O)C(=O)CN(CCO[C@H]1O[C@H](CO)[C@@H](O)[C@H](O)[C@@H]1O)C(=O)CN(CCO[C@H]1O[C@H](CO)[C@@H](O)[C@H](O)[C@@H]1O)C(=O)CNC(=O)CCCCC1SC[C@@H]2NC(=O)N[C@H]12 (stereo not given in full) | Active
4 | NC(=O)CN(CCO[C@H]1O[C@H](CO)[C@@H](O)[C@H](O)[C@@H]1O)C(=O)CN(CCO[C@H]1O[C@H](CO)[C@@H](O)[C@H](O)[C@@H]1O)C(=O)CN(CCO[C@H]1O[C@H](CO)[C@@H](O)[C@H](O)[C@@H]1O)C(=O)CN(CCO[C@H]1O[C@H](CO)[C@@H](O)[C@H](O)[C@@H]1O)C(=O)CN(CCO[C@H]1O[C@H](CO)[C@@H](O)[C@H](O)[C@@H]1O)C(=O)CNC(=O)CCCCC1SC[C@@H]2NC(=O)N[C@H]12 (stereo not given in full) | Active
5 | CN(C)c1cccc2c(S(=O)(=O)N(CCO[C@H]3O[C@H](CO)[C@@H](O)[C@H](O)[C@@H]3O)CC(=O)N(CCO[C@H]3O[C@H](CO)[C@@H](O)[C@H](O)[C@@H]3O)CC(=O)N(CCO[C@H]3O[C@H](CO)[C@@H](O)[C@H](O)[C@@H]3O)CC(N)=O)cccc12 | Active

— ChEMBL document CHEMBL1139780, “Pentamer is the minimum structure for oligomannosylpeptoids to bind to concanavalin A” (Bioorg Med Chem Lett, 2007)
